Results on 4 compounds are retold here after US8063219B2, “Nitrogenous heterocyclic compounds, preparation thereof and use thereof as antibacterial medicaments” (Novexel, priority 2007, dated 2011).

Values after ≈ are worked out from the molar mass of the structure shown.

What all share (test): In vitro activity, dilution method in liquid medium (MIC)
What all share (format): cell-based

Experiment [1] relates to Pseudomonas aeruginosa 1771 strains wild type. As to conditions: for Activity against Pseudomonas aeruginosa (in words): in vitro. As to the method: (§1) A series of tubes are prepared in which equal quantities of sterile nutrient medium are placed, and increasing quantities of the product being studied are placed in each tube then each tube is plated with a bacterial strain. After 24 hours incubation in an oven at 37° C., the growth inhibition is assessed by transillumination, which makes it possible to determine the minimum inhibition concentrations (MIC) expressed in μg/ml.
Tests are carried out in this way with the products of Examples 1 and 2 and compared with the products of Examples and 19 of application WO 02/100860.

Experiment [2] concerns Pseudomonas aeruginosa PA01 wild type. As to the method:
as §1

Experiment [3] has as its system Pseudomonas aeruginosa strain resisting via porin mutations. Particulars: for MIC (μg/ml) 24 h: Resisting via porin mutations [1 strain]. As for the experimental part: as §1
Experiment [4] deals with Pseudomonas aeruginosa strains resisting via efflux pumps. As for the experimental part:
as §1

For experiment [5], the system named is Pseudomonas aeruginosa strains resisting via β-lactamases. As to conditions: Resisting via β-lactamases [8 strains]. As to the method:
as §1

Where [6] appears, read: 1771 strains wild type, 24 h incubation at 37° C.
Setting [7] is: Pseudomonas aeruginosa, 24 h, read-out: MIC (μg/ml) 24 h.
Where [8] appears, read: Resisting via efflux pumps, second set [5 strains].

For the compound `CC(C)(O/N=C(\C(=O)N[C@@H]1C(=O)N2C(C(=O)[O-])=C(C[n+]3ccccc3)CS[C@H]12)c1csc(N)n1)C(=O)O` [Ceftazidine, reference compound], the “MIC (μg/ml) 24 h” value was 1 µg/mL (≈ 1.83 µM) in experiment [1] (setting [6]); 2 µg/mL (≈ 3.66 µM) in experiment [2]; 2 µg/mL (≈ 3.66 µM) in experiment [3]; “<=0.03-8 μg/ml” in experiment [4] (Resisting via efflux pumps [11/5 strains], set not given); 2 to 32 µg/mL in experiment [5].

With `C[C@@H](O)[C@H]1C(=O)N2C(C(=O)O)=C(SCCN=CN)C[C@H]12` [Imipenem, reference compound], the MIC in experiment [1] (Pseudomonas aeruginosa, 1771 strains wild type, 24 h incubation at 37° C., read-out: MIC (μg/ml) 24 h) is 1 µg/mL (≈ 3.34 µM); in experiment [2] (Pseudomonas aeruginosa, PA01WILDTYPE, 24 h, read-out: MIC (μg/ml) 24 h), 1 µg/mL (≈ 3.34 µM); in experiment [3] (setting [7]), 16 µg/mL (≈ 53.4 µM); in experiment [4] (setting [7]) it was 0.25 to 4 µg/mL (≈ 0.835 to 13.4 µM); in experiment [5] (setting [7]) it was 2 to 32 µg/mL (≈ 6.68 to 107 µM).

Take “The sodium and trifluoroacetate salt of trans[[8-(amino-methyl)-4,8-dihydro-6-oxo-5-(sulphooxy)-4,7-methano-7H-pyrazolo[3,4-e][1,3]diazepin-6(5H)-one [Ex 2]”: the “MIC (μg/ml) 24 h” value was 0.25 µg/mL in experiment [1] (setting [6]), “—/0.5-1 μg/ml” in experiment [4] (setting [8]) and 0.25 to 1 µg/mL in experiment [5]. In experiment [1], the “Activity against Pseudomonas aeruginosa (in words)” value is reported as “very active”.

Turning to “sodium and trifluoroacetate salts of trans[[8-(aminomethyl)-4,8-dihydro-1-methyl-6-oxo-5-(sulfooxy)-4,7-methano-7H-pyrazolo[3,4-e][1,3]diazepin-6(5H)-one [Ex 1]”, the “MIC (μg/ml) 24 h” value was 0.12 µg/mL in experiment [1] (setting [6]); 1 µg/mL in experiment [2]; 2 µg/mL in experiment [3]; 0.5 to 4 µg⁻¹ mL⁻¹ in experiment [4] (Resisting via efflux pumps, first set [11 strains]); 0.25 to 0.5 µg/mL in experiment [4] (setting [8]); 1 to 2 µg/mL in experiment [5]. In addition, the “Activity against Pseudomonas aeruginosa (in words)” value in experiment [1] was “very active”.
